Results on two compounds are retold here after patent US20190381071A1, “METHODS AND COMPOSITIONS FOR TREATING AND/OR PREVENTING THE PROGRESSION AND/OR ONSET OF AGE-RELATED NEURODEGENERATION” (Enterin, Inc., priority 2018, published 2019).

Entries after “also recorded” stand apart in the source; their conditions may differ.

One data set concerns B6D2F1 (BDF1) mice. In words: Dose response of growth delay in BDF1 mice (Example 1, FIG. 2). Type of data set: in vivo. As to conditions: for age at which animals reached maturity: male BDF1 mice, controls 120 days; for delay in reaching maturity, as measured by end weight: vs control. Here is the method: While all animals reached the mature weight of about 40 grams, the control animals reached maturity at 120 days, and the animals that received 5 and 10 mg/kg of Aminosterol 1436 reached maturity at 150 and 255 days, respectively.
An experiment was conducted to explore the dose response to a delay in growth of B6D2F1 (BDF1) mice to Aminsoterol 1436.
30 day old male BDF1 mice received either vehicle or Aminosterol 1436 intraveneously (IV) at 5 mg/kg or 10 mg/kg (n=15 for each treatment arm) every 3 days until 51 days of age. The Aminosterol 1436 was administered as a aqueous solution in water. BDF1 mice are available from Charles River Laboratories. The animals were fed standard lab chow, offered ad libitum. The animals were weighed and body length measured every 5 days.
However, while the control animals reached maturity at 120 days, the animals that received 5 mg/kg of Aminosterol 1436 reached maturity at 150 days, corresponding to a 25% delay in reaching maturity, as measured by end weight. […] Most importantly, both treated and untreated animals reached normal adult dimensions, albeit at different rates.

The test system of the next data set is C57BL/6 males. The data set is described as follows: Growth delay in C57BL/6 mice (Example 2, FIG. 3). It is filed as in vivo. As to conditions: for weight: 10 mg/kg i.p. every 3 days for two doses. Here is the method: Animals were then weighed and body length measured once weekly for a period of 40 days.
An experiment was conducted to determine whether treatment of animals with Aminosterol 1436 would delay growth of the animal.
C57BL/6 males (12-16 grams) were administered either vehicle or 10 mg/kg (i.p.) of Aminosterol 1436 every 3 days for two doses, for a total of 20 mg/kg over a 6 day period. The mice were about 3 weeks old, and there were 10 mice/arm. The animals were weighed and body length measured once weekly for a period of 40 days.
The results shown in FIG. 3 indicate that growth rates of the animals were slowed upon administration of Aminosterol 1436, which is consistent with the results shown in FIG. 2 and described in Example 1.

Data set [1] in a line: Brain localisation of radioactive Aminosterol 1436 after IV or ICV administration (FIG. 1). The following applies: radioactive compound, rat, IV via peripheral vein or injected into 3rd ventricle (ICV). Type of data set: in vivo. An excerpt:
The exact mechanism by which Aminosterol 1436 achieves its effect on preventing, delaying onset, and/or treating neurodegeneration, delaying maturity, retarding aging, and increasing potential lifespan is not known. However, without being bound by theory, Applicant theorizes that the effect of Aminosterol 1436 is likely in part due to the drug's effects on the hypothalamus within the brain of the animal.

The next data set has as its system adult mouse. The data set is described as follows: Neuroregeneration in adult mouse brain. It is filed as in vivo. The source says: The hypothalamus is of particular interest because it happens to be the site of localization of Aminosterol 1436 in the brain.
The next data set concerns HIV. The following applies: tissue culture; U.S. Pat. No. 5,763,430; cited from earlier work.
The conditions of data set [2]: U.S. Pat. No. 6,143,738; Ahima et al. (2002); cited from earlier work.
A further data set concerns the target T1, phosphatase PTP1B (Homo sapiens, UniProt P18031).
T1 sequence (P18031 1-435): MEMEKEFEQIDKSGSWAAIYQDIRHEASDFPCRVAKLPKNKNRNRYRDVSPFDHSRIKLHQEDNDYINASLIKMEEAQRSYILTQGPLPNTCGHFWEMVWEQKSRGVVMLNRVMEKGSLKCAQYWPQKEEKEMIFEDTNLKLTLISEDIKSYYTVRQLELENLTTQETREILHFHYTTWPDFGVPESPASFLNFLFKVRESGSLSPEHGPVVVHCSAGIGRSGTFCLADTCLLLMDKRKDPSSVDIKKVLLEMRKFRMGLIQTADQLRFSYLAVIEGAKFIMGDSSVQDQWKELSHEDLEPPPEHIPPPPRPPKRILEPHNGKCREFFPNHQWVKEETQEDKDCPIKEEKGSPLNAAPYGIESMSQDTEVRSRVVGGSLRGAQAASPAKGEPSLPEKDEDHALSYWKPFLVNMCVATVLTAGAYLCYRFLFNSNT
The following applies: Lantz et al., 2010; cited from earlier work.

`CC(C)[C@@H](CC[C@@H](C)[C@H]1CC[C@H]2[C@@H]3[C@H](O)C[C@H]4C[C@@H](NCCCNCCCCNCCCN)CC[C@]4(C)[C@H]3CC[C@]12C)OS(=O)(=O)O` [Aminosterol 1436, trodusquemine]: the “growth rate slower than the controls (by increasing weight)” value with B6D2F1 (BDF1) mice (5 mg/kg IV) is reported as “about 30%”. The “age at which animals reached maturity” value with B6D2F1 (BDF1) mice (5 mg/kg IV every 3 days from 30 to 51 days of age) came to 150 days; with B6D2F1 (BDF1) mice (10 mg/kg IV every 3 days from 30 to 51 days of age), 255 days. Also, the “delay in reaching maturity, as measured by end weight” value in the data set with B6D2F1 (BDF1) mice (5 mg/kg IV) came out at 25%; in the data set with B6D2F1 (BDF1) mice (10 mg/kg IV), 112.5%. Moreover, the “growth rate slowed (by increasing weight)” value with B6D2F1 (BDF1) mice (10 mg/kg IV) was 50%. Besides, the linear growth entry with B6D2F1 (BDF1) mice (5 and 10 mg/kg IV, data not shown) is on record as “slowed to a corresponding degree”. The mature weight reached entry in the data set on B6D2F1 (BDF1) mice (all animals (5 mg/kg, 10 mg/kg and control)) is on record as “about 40 grams”. For the same compound, the weight in the data set with C57BL/6 males (Day 0, control 16 g) is reported as 12 g; with C57BL/6 males (Day 40, control 24 g), 11 g. Besides, the decrease in weight in the data set on C57BL/6 males (Day 0 to Day 40, 10 mg/kg i.p. x 2, control increase of 50%) came out at 8.3%. The accumulation in brain entry in data set [1] was “accumulation of Aminosterol 1436 within the centers of the brain that control growth, maturation, and senescence; also recorded: accumulates within the centers of the brain that control growth, maturation and senescence”. In the data set with adult mouse, the neuroregeneration result is “stimulates neuroregeneration”. In the data set with adult mouse (subependymal zone, granular layers of olfactory bulb, medial and lateral hypothalamus, thalamus), the “number of cells in brain areas” value was “increase”. Also, the “antiviral activity against HIV” value with HIV is listed as “exhibits antiviral activity against HIV”. Further, the “appetite suppression and weight loss” value in data set [2] was “potent appetite suppression and promotion of dose-dependent weight loss”. The “inhibition of PTP1B” value on phosphatase PTP1B is recorded as “inhibit the phosphatase PTP1B”.
Regarding `CC(C)[C@@H](CC[C@@H](C)[C@H]1CC[C@H]2[C@@H]3[C@H](O)C[C@H]4C[C@@H](NCCCNCCCCN)CC[C@]4(C)[C@H]3CC[C@]12C)OS(=O)(=O)O` [squalamine, reference compound], in data set [2], the “appetite suppression and weight loss” value is “not shared with squalamine”.
